{"source": "patent US6930113B2", "about": "“Nitrosated and nitrosylated phosphodiesterase inhibitors, compositions and methods of use” (Nitromed, Inc., priority 1996, dated 2005)", "system": "Human corpus cavernosum tissue", "test": "In vitro comparative relaxation responses (isometric tension of tissue strips in organ chambers)", "assay_type": "cell-based", "settings": "doses of 10 μM and 30 μM; tissue contracted with phenylephrine 7×10^−7 M; compared with equimolar dipyridamole; FIG. 58", "from_the_text": "Human corpus cavernosum tissue biopsies were obtained at the time of penile prosthesis implantation from impotent men. The tissue was maintained in a chilled Krebs-bicarbonate solution prior to assay. The tissue was cut into strips of 0.3×0.3×1 cm and suspended in organ chambers for isometric tension measurement. Tissues were incrementally stretched until optimal isometric tension for contraction was obtained. Once this was achieved, the tissues were contracted with phenylephrine (7×10^−7 M) and once a stable contraction was achieved, the tissues were exposed to either dipyridamole or the compound of Example 1 (10^−6 to 3×10^−5 M) by cumulative additions to the chamber. At the end of the experiment, papaverine (10^−4 M) was added to obtain maximal relaxation. […] Data were expressed as the percent loss in tone from the phenylephrine-induced contraction (0%=phenylephrine contraction; −100%=tone after administration of papaverine).", "data": [{"smiles": "CC(C)(CC(=O)OCCN(CCOC(=O)CC(C)(C)SN=O)c1nc(N2CCCCC2)c2nc(N(CCOC(=O)CC(C)(C)SN=O)CCOC(=O)CC(C)(C)SN=O)nc(N3CCCCC3)c2n1)SN=O", "note": "[Example 1, 2,6-bis(Diethyl(3-methyl-3-(nitrosothio)butyric acid ester)amino)-4,8-dipiperidinopyrimido-[5,4-d]-pyrimidine]", "values": [{"measurement": "relaxing the phenylephrine-induced contraction (percent loss in tone from the phenylephrine-induced contraction)", "value": "more efficacious"}]}]}
